Consider five compounds from ChEMBL document CHEMBL3045834 (Med Chem Res, 2004).

The target of assay [1] is T1, Alpha-1B adrenergic receptor (Homo sapiens, UniProt P35368).
T1 sequence (P35368 whole entry): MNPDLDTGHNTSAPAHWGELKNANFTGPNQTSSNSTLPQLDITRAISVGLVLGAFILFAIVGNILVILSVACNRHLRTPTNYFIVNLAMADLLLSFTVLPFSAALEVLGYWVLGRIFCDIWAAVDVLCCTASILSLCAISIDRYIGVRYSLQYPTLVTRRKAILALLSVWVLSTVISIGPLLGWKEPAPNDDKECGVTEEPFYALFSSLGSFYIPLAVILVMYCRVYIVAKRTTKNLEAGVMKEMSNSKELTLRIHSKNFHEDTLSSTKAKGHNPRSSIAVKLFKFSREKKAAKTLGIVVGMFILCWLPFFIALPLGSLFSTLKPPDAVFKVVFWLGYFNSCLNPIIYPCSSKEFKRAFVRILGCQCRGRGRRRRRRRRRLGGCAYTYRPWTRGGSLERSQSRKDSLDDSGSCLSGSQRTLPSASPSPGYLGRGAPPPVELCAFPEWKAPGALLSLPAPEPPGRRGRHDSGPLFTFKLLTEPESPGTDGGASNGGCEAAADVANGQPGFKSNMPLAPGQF
The assay is described as follows: Displacement of [3H]prazosin from Homo sapiens (human) alpha1B adrenergic receptor. A general note: Loss of bound radioactivity is the signal in a displacement assay; it reports binding, not function.

The species named for assay [2] is Rattus norvegicus. Kind of assay: Selectivity ratio for antagonist activity at alpha1D adrenergic receptor in Rattus norvegicus (rat) aorta to antagonist activity at alpha1A adrenergic receptor in vas deferens.
The species named for assay [3] is Rattus norvegicus. The assay is described as follows: Selectivity ratio for antagonist activity at alpha1B adrenergic receptor in Rattus norvegicus (rat) spleen to antagonist activity at alpha1A adrenergic receptor in rat vas deferens. Type of assay: tissue-based.
Assay [4] concerns the target T2, Alpha-1B adrenergic receptor (Rattus norvegicus) (UniProt P15823).
T2 sequence (whole entry): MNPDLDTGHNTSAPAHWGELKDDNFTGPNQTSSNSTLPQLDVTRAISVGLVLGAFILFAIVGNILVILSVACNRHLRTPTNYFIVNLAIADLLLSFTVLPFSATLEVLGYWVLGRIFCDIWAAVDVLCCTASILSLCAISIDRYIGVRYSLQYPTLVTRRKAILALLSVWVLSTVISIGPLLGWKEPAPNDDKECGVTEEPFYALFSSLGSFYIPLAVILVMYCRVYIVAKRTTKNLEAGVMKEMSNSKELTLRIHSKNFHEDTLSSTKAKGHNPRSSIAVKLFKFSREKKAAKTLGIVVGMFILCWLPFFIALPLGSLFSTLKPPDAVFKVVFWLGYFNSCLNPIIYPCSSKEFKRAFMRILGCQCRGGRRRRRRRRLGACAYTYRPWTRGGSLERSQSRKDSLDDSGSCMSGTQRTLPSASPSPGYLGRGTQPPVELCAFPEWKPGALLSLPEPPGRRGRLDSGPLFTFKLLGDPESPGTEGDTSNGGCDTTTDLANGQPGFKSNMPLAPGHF
Kind of assay: Noncompetitive antagonist activity at alpha1B adrenergic receptor in Rattus norvegicus (rat) spleen assessed as inhibition of (-)-phenylephrine-induced contraction.

Assay [5] addresses T3, Alpha-1A adrenergic receptor (Homo sapiens, UniProt P35348).
T3 sequence (P35348 whole entry): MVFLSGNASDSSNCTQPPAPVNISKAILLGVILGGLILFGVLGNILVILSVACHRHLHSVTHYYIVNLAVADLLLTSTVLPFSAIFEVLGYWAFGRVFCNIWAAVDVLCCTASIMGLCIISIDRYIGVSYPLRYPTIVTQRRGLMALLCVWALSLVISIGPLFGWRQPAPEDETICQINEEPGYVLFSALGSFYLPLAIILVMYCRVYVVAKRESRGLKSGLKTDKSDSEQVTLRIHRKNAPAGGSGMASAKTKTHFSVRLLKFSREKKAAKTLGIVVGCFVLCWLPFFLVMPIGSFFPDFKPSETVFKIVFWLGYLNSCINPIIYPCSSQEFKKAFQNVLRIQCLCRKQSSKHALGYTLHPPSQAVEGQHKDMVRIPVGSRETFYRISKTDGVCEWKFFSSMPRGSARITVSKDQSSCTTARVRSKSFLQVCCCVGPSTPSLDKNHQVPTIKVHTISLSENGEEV
The assay is described as follows: Displacement of [3H]prazosin from Homo sapiens (human) alpha1A adrenergic receptor.

For assay [6], the target named is T4, Alpha-1D adrenergic receptor (Homo sapiens, UniProt P25100).
T4 sequence (P25100 whole entry): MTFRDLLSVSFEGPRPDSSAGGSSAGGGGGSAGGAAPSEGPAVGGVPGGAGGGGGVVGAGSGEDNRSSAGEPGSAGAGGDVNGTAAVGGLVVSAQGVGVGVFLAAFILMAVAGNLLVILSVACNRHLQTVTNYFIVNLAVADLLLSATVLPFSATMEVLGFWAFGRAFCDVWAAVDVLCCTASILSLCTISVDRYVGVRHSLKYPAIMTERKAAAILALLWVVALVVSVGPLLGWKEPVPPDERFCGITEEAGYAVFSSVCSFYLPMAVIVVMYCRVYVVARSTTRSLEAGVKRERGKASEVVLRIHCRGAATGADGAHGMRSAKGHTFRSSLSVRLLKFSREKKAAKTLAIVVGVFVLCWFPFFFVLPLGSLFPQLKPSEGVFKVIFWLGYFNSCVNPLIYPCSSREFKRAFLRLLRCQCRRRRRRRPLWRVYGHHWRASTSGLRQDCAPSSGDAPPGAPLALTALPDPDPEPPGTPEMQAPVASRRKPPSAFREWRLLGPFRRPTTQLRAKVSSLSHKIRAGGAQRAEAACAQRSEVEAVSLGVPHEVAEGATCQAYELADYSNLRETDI
The assay is described as follows: Displacement of [3H]prazosin from Homo sapiens (human) alpha1D adrenergic receptor.

The species entered for assay [7] is Rattus norvegicus. Kind of assay: Selectivity ratio for antagonist activity at alpha1B adrenergic receptor in Rattus norvegicus (rat) spleen to antagonist activity at alpha1D adrenergic receptor in aorta. The class given is tissue-based.
Assay [8] concerns the target T5, Alpha-1A adrenergic receptor (Rattus norvegicus) (UniProt P43140).
T5 sequence (whole entry): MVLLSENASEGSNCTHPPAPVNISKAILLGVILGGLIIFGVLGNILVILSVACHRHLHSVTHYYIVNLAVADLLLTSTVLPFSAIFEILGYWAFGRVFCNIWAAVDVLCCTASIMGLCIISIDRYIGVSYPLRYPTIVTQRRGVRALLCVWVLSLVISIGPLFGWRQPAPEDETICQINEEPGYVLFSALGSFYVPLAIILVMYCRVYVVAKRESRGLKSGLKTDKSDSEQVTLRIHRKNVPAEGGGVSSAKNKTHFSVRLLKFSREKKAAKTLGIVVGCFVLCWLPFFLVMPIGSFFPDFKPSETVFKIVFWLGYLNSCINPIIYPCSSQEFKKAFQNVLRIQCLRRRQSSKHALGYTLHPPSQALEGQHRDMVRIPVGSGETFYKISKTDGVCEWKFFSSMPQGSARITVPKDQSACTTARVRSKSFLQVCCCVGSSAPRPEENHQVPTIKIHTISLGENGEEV
Kind of assay: Noncompetitive antagonist activity at alpha1A adrenergic receptor in Rattus norvegicus (rat) vas deferens assessed as inhibition of (-)-noradrenaline-induced contraction.

The target of assay [9] is T6, Alpha-1D adrenergic receptor (Rattus norvegicus, UniProt P23944).
T6 sequence (P23944 whole entry): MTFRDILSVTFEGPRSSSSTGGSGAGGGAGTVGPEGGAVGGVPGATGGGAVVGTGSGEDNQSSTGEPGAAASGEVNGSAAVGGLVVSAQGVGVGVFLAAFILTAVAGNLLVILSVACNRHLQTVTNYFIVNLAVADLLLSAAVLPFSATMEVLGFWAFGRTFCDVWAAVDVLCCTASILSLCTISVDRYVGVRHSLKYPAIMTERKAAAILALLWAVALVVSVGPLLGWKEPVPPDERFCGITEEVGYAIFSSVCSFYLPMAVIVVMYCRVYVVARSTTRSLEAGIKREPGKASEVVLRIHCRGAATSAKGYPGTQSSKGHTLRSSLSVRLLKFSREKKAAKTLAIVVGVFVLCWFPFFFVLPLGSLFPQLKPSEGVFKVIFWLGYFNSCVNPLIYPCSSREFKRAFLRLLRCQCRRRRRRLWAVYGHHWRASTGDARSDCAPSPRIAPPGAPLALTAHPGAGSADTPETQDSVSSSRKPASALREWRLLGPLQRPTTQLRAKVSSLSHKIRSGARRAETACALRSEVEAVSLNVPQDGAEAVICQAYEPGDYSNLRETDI
Kind of assay: Competitive antagonist activity at alpha1D adrenergic receptor in Rattus norvegicus (rat) aorta assessed as inhibition of (-)-noradrenaline-induced contraction. The note with it: read-out: pA2 (converted).

The target of assay [10] is T7, Alpha-1A adrenergic receptor (Rattus norvegicus, UniProt P43140).
T7 sequence (P43140 whole entry): T5 sequence (whole entry)
The assay is described as follows: Antagonist activity at alpha1A adrenoreceptor in Rattus norvegicus (rat) small mesenteric artery. The note with it: read-out: pA2 (converted).

Assay [11] deals with T1, Alpha-1B adrenergic receptor. Kind of assay: Binding affinity to alpha1B adrenoreceptor (unknown origin) by radioligand binding assay.
The target in assay [12] is T7, Alpha-1A adrenergic receptor. The assay is described as follows: Competitive antagonist activity at alpha1A adrenergic receptor in Rattus norvegicus (rat) vas deferens assessed as inhibition of (-)-noradrenaline-induced contraction. Conditions: read-out: pA2 (converted).

For the compound `COc1cc2nc(N3CCN(C(=O)c4ccc(C(C)=O)o4)[C@H]4CCCC[C@@H]43)nc(N)c2cc1OC`, the Ki (usually the dissociation constant of the complex between target and ligand, obtained from inhibition or displacement) in [1] is 1.38 nM; in [5], 25.7 nM; in assay [6], 7.41 nM. Further, the Selectivity ratio in the assay listed under Rattus norvegicus [2] amounted to 0.2; in the assay listed under Rattus norvegicus [3] it was 302; in the assay listed under Rattus norvegicus [7], 1510. The pKb – broadly, the negative decadic logarithm of the Kb, by convention in mol/L – in assay [4] amounted to 9.85; in [8] it was 7.37. In addition, the Kb in assay [9] was 214 nM.

Take `COc1cc2nc(N3CCN(C(=O)c4ccco4)[C@H]4CCCC[C@H]43)nc(N)c2cc1OC` [(+)-CYCLAZOSIN]: the Kb in [10] was 16.6 nM. In assay [11], the affinity, expressed as Ki, was 0.692 nM.

Consider `COc1cc2nc(N3CCN(C(=O)c4ccc(C)o4)[C@H]4CCCC[C@@H]43)nc(N)c2cc1OC`, for which the Ki is 0.871 nM in assay [1], 23.4 nM in assay [5] and 4.79 nM in assay [6]. The values for the Selectivity ratio in the assay filed under Rattus norvegicus [2], in the assay filed under Rattus norvegicus [3] and in the assay filed under Rattus norvegicus [7] were 2.3, 407 and 174, respectively. Besides, the results for the pKb in assay [4] and in [8] were 9.28 and 6.67, respectively. Moreover, in assay [9], the Kb is 91.2 nM.

With `COc1ccc(C(=O)N2CCN(c3nc(N)c4cc(OC)c(OC)cc4n3)[C@H]3CCCC[C@@H]32)o1`, the Ki in [1] was 0.871 nM; in assay [5], 27.5 nM; in assay [6], 3.63 nM. The Selectivity ratio turned out to be 1.6 in the assay filed under Rattus norvegicus [2], 724 in the assay filed under Rattus norvegicus [3] and 457 in the assay listed under Rattus norvegicus [7]. Also, the pKb in assay [4] stood at 9.71. Also, the results for the Kb in assay [12] and in assay [9] were 141 nM and 89.1 nM, respectively.

Regarding `COc1cc2nc(N3CCN(C(=O)c4ccc(Br)o4)[C@H]4CCCC[C@@H]43)nc(N)c2cc1OC`, the inhibitory constant (Ki) was 0.309 nM in assay [1], 3.47 nM in assay [5] and 1.55 nM in assay [6]. Further, the values for the Selectivity ratio in the assay filed under Rattus norvegicus [2], in the assay listed under Rattus norvegicus [3] and in the assay filed under Rattus norvegicus [7] were 0.5, 199 and 398, respectively. For the same compound, the pKb in assay [4] was determined as 9.83; in assay [8], 7.53. The Kb in assay [9] was 58.9 nM.
